Laboratory results: ChEMBL document CHEMBL4184207, “Novel compounds with potent CDK9 inhibitory activity for the treatment of myeloma” (Bioorg Med Chem Lett, 2018)

Assays:
[1] = biological target: T1, Serine/threonine-protein kinase PLK1 (Homo sapiens, UniProt P53350); assay: Inhibition of human PLK1 kinase domain using 5-TAMRA-RGSFNDTLDFD-NH2 substrate and ATP incubated for 90 mins by fluorescent polarization assay
CDK9/cyclin T1 = CDK9/cyclin T1 (Homo sapiens, UniProt P50750); assay: Inhibition of N-terminal GST-HIS6 fusion protein tagged human full length CDK9 (M1 to F372 residues)/N-terminal GST-HIS6 fusion protein tagged human Cyclin-T1 (M1 to K726 residues) expressed in Sf9 cells at 10 uM using TAMRA-Rbtide substrate and ATP incubated for 1 hr by fluorescent polarization assay
CDK9/cyclin T1, sequence (O60563 whole entry, the tested form may be a part): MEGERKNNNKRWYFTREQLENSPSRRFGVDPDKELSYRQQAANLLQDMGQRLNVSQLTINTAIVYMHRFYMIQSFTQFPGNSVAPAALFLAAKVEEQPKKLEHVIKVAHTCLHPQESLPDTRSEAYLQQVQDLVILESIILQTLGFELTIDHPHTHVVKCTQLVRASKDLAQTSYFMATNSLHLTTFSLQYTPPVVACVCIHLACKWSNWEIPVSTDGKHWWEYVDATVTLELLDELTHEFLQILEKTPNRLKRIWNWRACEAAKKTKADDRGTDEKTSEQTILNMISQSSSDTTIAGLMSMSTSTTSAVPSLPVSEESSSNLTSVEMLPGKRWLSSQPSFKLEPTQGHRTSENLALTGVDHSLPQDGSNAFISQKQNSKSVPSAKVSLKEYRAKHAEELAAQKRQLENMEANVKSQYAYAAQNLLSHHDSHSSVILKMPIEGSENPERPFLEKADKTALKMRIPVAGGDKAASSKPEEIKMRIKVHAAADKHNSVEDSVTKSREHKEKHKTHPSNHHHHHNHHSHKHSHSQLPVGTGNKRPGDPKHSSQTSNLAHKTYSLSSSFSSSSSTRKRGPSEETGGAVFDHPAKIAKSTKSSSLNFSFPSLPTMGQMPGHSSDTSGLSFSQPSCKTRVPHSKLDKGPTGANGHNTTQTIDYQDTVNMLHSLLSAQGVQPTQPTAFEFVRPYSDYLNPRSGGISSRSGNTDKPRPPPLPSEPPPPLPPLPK
CDK9/cyclin T1, sequence (P50750 whole entry, the tested form may be a part): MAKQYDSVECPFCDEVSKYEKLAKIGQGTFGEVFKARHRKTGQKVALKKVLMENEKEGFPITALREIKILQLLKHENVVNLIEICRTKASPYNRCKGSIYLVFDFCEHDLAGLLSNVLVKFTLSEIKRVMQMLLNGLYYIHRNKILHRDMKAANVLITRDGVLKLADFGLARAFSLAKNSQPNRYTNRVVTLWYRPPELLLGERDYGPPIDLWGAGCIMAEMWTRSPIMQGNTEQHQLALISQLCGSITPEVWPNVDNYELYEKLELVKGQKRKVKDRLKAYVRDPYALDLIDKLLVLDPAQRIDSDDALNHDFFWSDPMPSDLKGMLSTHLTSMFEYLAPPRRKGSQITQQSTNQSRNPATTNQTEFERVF

[2] = biological target: CDK2/Cyclin A2 (Homo sapiens) (UniProt P24941+P20248); assay: Inhibition of human full length CDK2 (M1 to L298 residues)/human full length Cyclin-A2 (M1 to L432 residues) expressed in Sf9 cells at 1 uM using TAMRA-histone H1-derived peptide substrate and ATP incubated for 1 hr by fluorescent polarization assay
[3] = biological target: CDK7/Cyclin H/MNAT1 (Homo sapiens) (UniProt P51946+P50613+P51948); assay: Inhibition of N-terminal GST-HIS6 fusion protein tagged human CDK7 (M1 to F346 residues)/N-terminal HIS6-tagged human Cyclin-H (M1 to L323 residues)/N-terminal HIS6-tagged human MAT1 (M1 to S306 residues) expressed in Sf9 cells at 1 uM using RB-CTF substrate and ATP incubated for 1 hr by fluorescent polarization assay
RPMI-8226 = assay: Antiproliferative activity against human RPMI8226 cells assessed as inhibition of cell proliferation incubated for 72 hrs by Cell-titer-Glo luminescent cell viability assay; format: functional, cell-based; conditions: RPMI-8226, 72 h
[4] = biological target: T1, Serine/threonine-protein kinase PLK1; assay: Inhibition of human PLK1 kinase domain at 10 uM using 5-TAMRA-RGSFNDTLDFD-NH2 substrate and ATP incubated for 90 mins by fluorescent polarization assay

T1 sequence (P53350 whole entry, the tested form may be a part): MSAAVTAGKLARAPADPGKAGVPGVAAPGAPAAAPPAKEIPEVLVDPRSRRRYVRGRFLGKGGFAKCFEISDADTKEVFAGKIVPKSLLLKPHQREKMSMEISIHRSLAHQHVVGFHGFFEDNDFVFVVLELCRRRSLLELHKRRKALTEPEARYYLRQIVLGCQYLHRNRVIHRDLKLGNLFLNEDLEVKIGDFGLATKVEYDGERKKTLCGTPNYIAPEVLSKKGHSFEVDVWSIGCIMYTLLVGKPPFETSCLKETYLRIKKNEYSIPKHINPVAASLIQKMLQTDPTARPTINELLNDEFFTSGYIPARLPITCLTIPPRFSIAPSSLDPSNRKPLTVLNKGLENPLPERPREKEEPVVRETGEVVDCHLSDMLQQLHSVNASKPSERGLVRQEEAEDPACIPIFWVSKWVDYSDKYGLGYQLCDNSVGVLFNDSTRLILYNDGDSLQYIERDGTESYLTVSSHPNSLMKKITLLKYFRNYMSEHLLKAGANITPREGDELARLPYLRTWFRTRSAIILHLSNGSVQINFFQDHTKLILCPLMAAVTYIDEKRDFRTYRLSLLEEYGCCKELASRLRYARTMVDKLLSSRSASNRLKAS

IC50 (CDK9/cyclin T1) [µM] | also measured | Structure (SMILES)
0.003 | IC50 [1]: > 12.5 µM; inhibition [2]: 9%; inhibition [3]: 0%; IC50 (RPMI-8226): 1.34 µM | COc1ccccc1-c1ccnc(Nc2cccc(Cn3cnc4ccccc43)c2)n1
0.002 | IC50 [1]: > 12.5 µM; inhibition [2]: 44%; inhibition [3]: 0%; IC50 (RPMI-8226): 1.78 µM | COc1cccc(F)c1-c1ccnc(Nc2cccc(Cn3cnc4ccccc43)c2)n1
0.001 | IC50 [1]: 5.91 µM; inhibition [2]: 83%; inhibition [3]: 2%; inhibition [4]: 75% | COc1ccc(F)c(F)c1-c1ccnc(Nc2ccc(S(=O)(=O)Nc3onc(C)c3C)cc2)n1
0.21 | – | CCOc1cc(F)ccc1-c1ccnc(Nc2ccc(S(=O)(=O)Nc3nccs3)cc2)n1
0.002 | IC50 [1]: > 12.5 µM; inhibition [2]: 46%; inhibition [3]: 0% | COc1cccc(F)c1-c1ccnc(Nc2ccc(S(=O)(=O)Nc3nccs3)cc2)n1
> 12.5 | – | COc1cc(F)c(Nc2nccc(-c3ccc(F)cc3OC(C)C)n2)cc1C(N)=O
0.009 | – | COc1ccc(F)cc1-c1ccnc(Nc2ccc(S(=O)(=O)Nc3onc(C)c3C)cc2)n1
0.009 | inhibition [4]: 34% | COc1ccc(-c2ccnc(Nc3ccc(S(=O)(=O)Nc4onc(C)c4C)cc3)n2)c(OC)c1
0.002 | – | CCOc1cc(F)ccc1-c1ccnc(Nc2ccc(S(=O)(=O)Nc3nnc(C)s3)cc2)n1
0.003 | IC50 [1]: > 12.5 µM; inhibition [2]: 0%; inhibition [3]: 0% | COc1cc(F)ccc1-c1ccnc(Nc2ccc(S(=O)(=O)Nc3noc(C)c3C)cc2)n1
0.008 | inhibition [4]: 37% | COc1cc(F)c(F)cc1-c1ccnc(Nc2ccc(S(=O)(=O)Nc3onc(C)c3C)cc2)n1
1.58 | IC50 (RPMI-8226): 21.5 µM | COc1cc(F)c(Nc2nccc(-c3ccccc3OC)n2)cc1C(N)=O
> 12.5 | – | COc1cc(F)ccc1-c1ccnc(Nc2ccc(-c3c(C)noc3C)cc2)n1
0.002 | IC50 [1]: > 12.5 µM; inhibition [2]: 43%; inhibition [3]: 3%; inhibition [4]: 35% | COc1cc(F)ccc1-c1ccnc(Nc2ccc(S(=O)(=O)Nc3onc(C)c3C)cc2)n1
0.005 | IC50 (RPMI-8226): 15.5 µM | COc1cc(F)ccc1-c1ccnc(Nc2ccc(S(=O)(=O)Nc3noc4ccccc34)cc2)n1
0.135 | – | COc1cc(F)ccc1-c1ccnc(Nc2ccc(C(=O)Nc3onc(C)c3C)cc2)n1
0.006 | – | Cc1cc(F)ccc1-c1ccnc(Nc2ccc(S(=O)(=O)Nc3onc(C)c3C)cc2)n1
0.014 | – | COc1ccc(-c2ccnc(Nc3ccc(S(=O)(=O)Nc4nnc(C)s4)cc3)n2)c(OC)c1
0.008 | inhibition [4]: 11% | CCOc1cc(F)ccc1-c1ccnc(Nc2ccc(S(=O)(=O)Nc3onc(C)c3C)cc2)n1
> 12.5 | – | CCOc1cc(Cl)ccc1-c1ccnc(Nc2cc(C(N)=O)c(OC)cc2F)n1
> 12.5 | – | CCOc1cc(F)ccc1-c1ccnc(Nc2cc(C(N)=O)c(OC)cc2F)n1
0.066 | – | COc1cc(F)ccc1-c1ccnc(Nc2ccc(C(=O)O)cc2)n1
0.012 | – | COc1ccccc1-c1ccnc(Nc2ccc(S(=O)(=O)Nc3nnc(C)s3)cc2)n1
0.01 | – | COc1cc(F)c(F)cc1-c1ccnc(Nc2ccc(S(=O)(=O)Nc3nnc(C)s3)cc2)n1
0.003 | inhibition [4]: 56%; IC50 (RPMI-8226): 29.2 µM | COc1ccccc1-c1ccnc(Nc2ccc(S(=O)(=O)Nc3onc(C)c3C)cc2)n1
0.011 | inhibition [4]: 55% | Cc1noc(NS(=O)(=O)c2ccc(Nc3nccc(-c4ccc(F)cc4F)n3)cc2)c1C

IC50 (CDK9/cyclin T1) [µM] | also measured | Structure (SMILES)
0.049 | inhibition [4]: 13% | Cc1noc(NS(=O)(=O)c2ccc(Nc3nccc(-c4ccc(F)cc4OC(C)C)n3)cc2)c1C
> 12.5 | – | COc1cc(F)c(Nc2nccc(-c3ccc(F)cc3OC)n2)cc1C(N)=O
0.002 | IC50 [1]: > 12.5 µM; inhibition [2]: 14%; inhibition [3]: 0% | CCOc1cccc(F)c1-c1ccnc(Nc2ccc(S(=O)(=O)Nc3onc(C)c3C)cc2)n1
0.021 | – | COc1cc(F)c(-c2ccnc(Nc3ccc(S(=O)(=O)Nc4onc(C)c4C)cc3)n2)c(F)c1
0.005 | – | CCOc1cc(Cl)ccc1-c1ccnc(Nc2ccc(S(=O)(=O)Nc3nnc(C)s3)cc2)n1
0.004 | – | COc1cc(F)ccc1-c1ccnc(Nc2cccc(Cn3cnc4ccccc43)c2)n1
0.017 | inhibition [4]: 5% | CCOc1cc(Cl)ccc1-c1ccnc(Nc2ccc(S(=O)(=O)Nc3onc(C)c3C)cc2)n1
> 12.5 | – | COc1cc(F)c(Nc2nccc(-c3ccc(F)cc3F)n2)cc1C(N)=O
0.122 | – | COc1cc(F)ccc1-c1ccnc(Nc2ccc(S(=O)(=O)Nc3nccs3)cc2)n1
0.05 | – | Cc1noc(NS(=O)(=O)c2ccc(Nc3nccc(-c4ccc(Cl)cc4Cl)n3)cc2)c1C
0.025 | – | COc1cccc(Cl)c1-c1ccnc(Nc2ccc(S(=O)(=O)Nc3onc(C)c3C)cc2)n1
0.378 | – | CCOc1cc(Cl)ccc1-c1ccnc(Nc2ccc(S(=O)(=O)Nc3nccs3)cc2)n1
0.033 | IC50 (RPMI-8226): 24.7 µM | COc1ccccc1-c1ccnc(Nc2ccc(S(=O)(=O)Nc3nccs3)cc2)n1
0.001 | IC50 [1]: 12.3 µM; inhibition [2]: 44%; inhibition [3]: 1%; IC50 (RPMI-8226): 26.6 µM | COc1cccc(F)c1-c1ccnc(Nc2ccc(S(=O)(=O)Nc3onc(C)c3C)cc2)n1
0.055 | – | Cc1noc(NS(=O)(=O)c2ccc(Nc3nccc(-c4ccc(F)cc4Cl)n3)cc2)c1C
> 12.5 | IC50 (RPMI-8226): 20.5 µM | COc1cc(F)c(Nc2nccc(-c3c(F)cccc3OC)n2)cc1C(N)=O
0.009 | – | COc1ccc(F)cc1-c1ccnc(Nc2ccc(S(=O)(=O)Nc3nnc(C)s3)cc2)n1
> 12.5 | – | COc1cc(F)c(Nc2nccc(-c3cc(F)c(F)cc3OC)n2)cc1C(N)=O
0.458 | inhibition [4]: 65% | Cc1noc(NS(=O)(=O)c2ccc(Nc3nccc(-c4cccc(OC(C)C)c4F)n3)cc2)c1C
0.004 | IC50 (RPMI-8226): 12.3 µM | COc1ccccc1-c1ccnc(Nc2ccc(S(=O)(=O)Nc3noc(C)c3C)cc2)n1
0.013 | – | CSc1cc(F)ccc1-c1ccnc(Nc2ccc(S(=O)(=O)Nc3onc(C)c3C)cc2)n1
0.006 | – | COc1cc(F)ccc1-c1ccnc(Nc2ccc(S(=O)(=O)Nc3nnc(C)s3)cc2)n1
0.04 | – | COc1cc(F)ccc1-c1cc(Nc2ccc(S(=O)(=O)Nc3onc(C)c3C)cc2)ncn1
0.002 | IC50 [1]: > 12.5 µM; inhibition [2]: 29%; inhibition [3]: 2% | COc1cccc(F)c1-c1ccnc(Nc2ccc(S(=O)(=O)Nc3nnc(C)s3)cc2)n1
0.012 | – | COc1cc(Cl)ccc1-c1ccnc(Nc2ccc(S(=O)(=O)Nc3onc(C)c3C)cc2)n1
0.0004 | IC50 [1]: > 12.5 µM; inhibition [2]: 50%; inhibition [3]: 7%; IC50 (RPMI-8226): 11.7 µM | COc1ccc(F)c(F)c1-c1ccnc(Nc2ccc(S(=O)(=O)Nc3nnc(C)s3)cc2)n1
